# Assay results as given in ChEMBL document CHEMBL4627342, “Novel pyridone EP4 agonists featuring allylic alcohol ω-chains” (Bioorg Med Chem Lett, 2020).
# Legend:
# Type in all cases: functional, cell-based
# [1] = molecular target: T1, Prostaglandin E2 receptor EP4 subtype (Homo sapiens, UniProt P35408); test: Agonist activity at human EP4 receptor expressed in HEK293 cells by calcium-5 dye based FLIPR assay relative to control
# [2] = molecular target: T1, Prostaglandin E2 receptor EP4 subtype; test: Agonist activity at human EP4 receptor expressed in HEK293 cells by calcium-5 dye based FLIPR assay
# [3] = molecular target: T2, Prostaglandin E2 receptor EP3 subtype (Homo sapiens, UniProt P43115); test: Agonist activity at human EP3 receptor expressed in HEK293 cells by calcium-5 dye based FLIPR assay
# T2 sequence (P43115 whole entry): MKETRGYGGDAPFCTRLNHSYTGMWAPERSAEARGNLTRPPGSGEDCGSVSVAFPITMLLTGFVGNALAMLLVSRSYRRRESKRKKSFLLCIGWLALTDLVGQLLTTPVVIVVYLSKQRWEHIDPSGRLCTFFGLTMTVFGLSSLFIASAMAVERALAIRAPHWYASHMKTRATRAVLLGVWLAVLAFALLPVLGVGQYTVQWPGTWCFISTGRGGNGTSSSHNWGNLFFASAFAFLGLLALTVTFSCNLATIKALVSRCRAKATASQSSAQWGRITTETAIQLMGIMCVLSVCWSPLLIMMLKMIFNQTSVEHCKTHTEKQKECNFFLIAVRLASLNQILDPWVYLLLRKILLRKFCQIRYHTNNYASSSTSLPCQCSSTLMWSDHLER
# [4] = molecular target: T3, Prostaglandin E2 receptor EP1 subtype (Homo sapiens, UniProt P34995); test: Agonist activity at human EP1 receptor expressed in HEK293 cells by calcium-5 dye based FLIPR assay
# T3 sequence (P34995 whole entry): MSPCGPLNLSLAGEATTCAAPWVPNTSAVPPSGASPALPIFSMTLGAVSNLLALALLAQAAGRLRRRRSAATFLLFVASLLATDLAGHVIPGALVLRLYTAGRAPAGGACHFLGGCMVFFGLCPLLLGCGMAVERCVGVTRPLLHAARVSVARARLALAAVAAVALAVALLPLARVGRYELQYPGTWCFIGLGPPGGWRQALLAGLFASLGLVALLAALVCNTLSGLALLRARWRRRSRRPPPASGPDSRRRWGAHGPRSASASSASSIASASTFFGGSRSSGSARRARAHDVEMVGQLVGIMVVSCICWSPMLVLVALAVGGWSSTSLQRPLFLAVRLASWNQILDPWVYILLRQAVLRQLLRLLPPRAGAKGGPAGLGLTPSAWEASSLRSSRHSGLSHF
# [5] = molecular target: Prostaglandin E2 receptor EP2 subtype (Homo sapiens, UniProt P43116); test: Agonist activity at human EP2 receptor expressed in HEK293 cells by calcium-5 dye based FLIPR assay
# Chain of Prostaglandin E2 receptor EP2 subtype (P43116 whole entry): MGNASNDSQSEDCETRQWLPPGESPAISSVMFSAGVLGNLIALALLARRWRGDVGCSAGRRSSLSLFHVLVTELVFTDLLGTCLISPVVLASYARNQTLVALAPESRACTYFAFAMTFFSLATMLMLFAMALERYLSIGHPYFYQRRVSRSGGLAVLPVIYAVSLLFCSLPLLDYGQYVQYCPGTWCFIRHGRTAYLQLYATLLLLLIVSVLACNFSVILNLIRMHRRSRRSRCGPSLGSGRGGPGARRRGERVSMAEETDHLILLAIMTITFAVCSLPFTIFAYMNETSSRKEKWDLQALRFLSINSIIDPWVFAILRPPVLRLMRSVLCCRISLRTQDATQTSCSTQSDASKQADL
# T1 sequence (P35408 whole entry): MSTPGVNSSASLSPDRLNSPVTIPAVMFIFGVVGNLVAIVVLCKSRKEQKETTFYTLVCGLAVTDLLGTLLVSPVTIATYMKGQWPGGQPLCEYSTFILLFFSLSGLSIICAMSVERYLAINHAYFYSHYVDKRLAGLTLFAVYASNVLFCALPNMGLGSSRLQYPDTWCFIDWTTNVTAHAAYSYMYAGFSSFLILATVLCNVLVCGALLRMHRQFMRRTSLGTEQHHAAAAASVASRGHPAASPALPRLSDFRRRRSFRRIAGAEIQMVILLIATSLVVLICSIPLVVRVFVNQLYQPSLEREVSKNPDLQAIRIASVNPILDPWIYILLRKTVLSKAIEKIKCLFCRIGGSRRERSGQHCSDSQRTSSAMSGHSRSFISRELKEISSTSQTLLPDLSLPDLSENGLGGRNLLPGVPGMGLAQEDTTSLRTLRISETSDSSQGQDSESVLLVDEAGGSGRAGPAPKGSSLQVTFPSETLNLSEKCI
SMILES,Emax [1],EC50 [2],EC50 [3],EC50 [4],EC50 [5]
CCCCCC(O)/C=C/c1c(Cl)cc(Cl)c(=O)n1CCc1ccc(C(=O)O)cc1 (stereo in doubt; 9) [listing 1 of 2 here],146%,,,,
CCCCCC(O)/C=C/c1c(Cl)cc(Cl)c(=O)n1CCc1ccc(C(=O)O)cc1 (stereo in doubt; 9) [listing 2 of 2 here],,13 nM,,,
CCCCCC(O)CCc1cccc(=O)n1CCCCCCC(=O)O (centres undefined),103%,550 nM,2700 nM,2350 nM,> 10000 nM
"CCCCCC(O)/C=C/c1c(Cl)cc(Cl)c(=O)n1CCc1ccc(C(=O)O)cc1 (single isomer, unassigned; ent-9) [listing 1 of 2 here]",,60 nM,,,
CCCCCC(O)/C=C/c1c(Br)cc(Br)c(=O)n1CCCCCCC(=O)O (centres undefined),99%,360 nM,> 10000 nM,> 10000 nM,> 10000 nM
CCCCCC(O)/C=C/c1c(Cl)cc(Cl)c(=O)n1CCc1ccc(C(=O)O)cc1 (racemic) [listing 1 of 2 here],129%,,,,
CCCCCC(O)/C=C/c1c(Cl)cc(Cl)c(=O)n1CCc1ccc(C(=O)O)cc1 (racemic) [listing 2 of 2 here],,7 nM,> 10000 nM,> 10000 nM,> 10000 nM
CCCCCC(O)/C=C/c1c(Cl)cc(Cl)c(=O)n1CCCCCCC(=O)O (centres undefined),123%,160 nM,> 10000 nM,> 10000 nM,> 10000 nM
"CCCCCC(O)/C=C/c1c(Cl)cc(Cl)c(=O)n1CCc1ccc(C(=O)O)cc1 (single isomer, unassigned; ent-9) [listing 2 of 2 here]",136%,,,,
CCCCCC(O)CCc1c(Cl)cc(Cl)c(=O)n1CCc1ccc(C(=O)O)cc1 (centres undefined),138%,4.9 nM,> 10000 nM,> 10000 nM,1500 nM
CCCCCC(C)(O)/C=C/c1c(Cl)cc(Cl)c(=O)n1CCc1ccc(C(=O)O)cc1 (centres undefined),139%,29 nM,> 10000 nM,> 10000 nM,4700 nM
